Measurements from ChEMBL document CHEMBL4418294, “Morpholines as selective inhibitors of cytochrome P450 2A13” (2013).

Assays:
Cytochrome P450 2A6 = molecular target: T1, Cytochrome P450 2A6 (Homo sapiens, UniProt P11509); assay: Binding affinity to full length recombinant truncated non-catalytic N-terminal transmembrane helix containing C-terminal 4xHis tagged human CYP2A6dH expressed in Escherichia coli by HTS assay; type: ADME
T1 sequence (P11509 whole entry): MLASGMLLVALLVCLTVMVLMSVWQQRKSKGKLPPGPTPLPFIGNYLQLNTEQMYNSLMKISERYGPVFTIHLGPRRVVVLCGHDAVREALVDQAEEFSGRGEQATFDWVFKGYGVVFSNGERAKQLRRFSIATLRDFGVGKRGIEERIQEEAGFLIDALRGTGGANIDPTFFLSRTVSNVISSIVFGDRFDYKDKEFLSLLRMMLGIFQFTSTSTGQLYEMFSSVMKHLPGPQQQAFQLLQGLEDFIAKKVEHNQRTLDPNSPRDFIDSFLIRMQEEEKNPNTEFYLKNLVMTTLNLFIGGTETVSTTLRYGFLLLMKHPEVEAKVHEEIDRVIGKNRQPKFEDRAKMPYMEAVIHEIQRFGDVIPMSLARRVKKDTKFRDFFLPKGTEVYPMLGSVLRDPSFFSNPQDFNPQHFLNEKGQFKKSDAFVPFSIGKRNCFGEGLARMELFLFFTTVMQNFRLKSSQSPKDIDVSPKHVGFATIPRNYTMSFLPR

Homo sapiens = species on record: Homo sapiens; assay: Selectivity ratio of Kd for full length recombinant truncated non-catalytic N-terminal transmembrane helix containing C-terminal 4xHis tagged human CYP2A13dH expressed in Escherichia coli to Kd for full length recombinant truncated non-catalytic N-terminal transmembrane helix containing C-terminal 4xHis tagged human CYP2A6dH expressed in Escherichia coli

SMILES | Kd (Cytochrome P450 2A6) | Selectivity ratio (Homo sapiens)
Clc1ccccc1CN1CCOCC1 | Not Active | –
Cc1ccccc1CN1CCOCC1 | Not Active | –
Brc1ccccc1CN1CCOCC1 | Not Active | –
CC1CN(Cc2cccc(Cl)c2Cl)CC(C)O1 (stereo unspecified) | – | 12.9
Fc1ccccc1CN1CCOCC1 | Not Active | –
Fc1cccc(Cl)c1CN1CCOCC1 | Not Active | –
